The source of these data is patent US4275071A, “Imidazole derivatives” (Recordati S.A., priority 1978, dated 1981).

Series [1] deals with maximum electroshock seizure in mice. Put plainly: Maximum electroshock seizure test (MES) in the mouse. In kind it is in vivo, mouse (albino race). The note with it: read-out: ED50 - MES.
The subject of series [2] is pentylenetetrazol (Metrazol) seizure in mice. Put plainly: Subcutaneous pentylenetetrazol (Metrazol) seizure threshold test (MET) in the mouse. The note with it: 1 h, read-out: ED50 - MET. The format is in vivo.
The subject of series [3] is mouse. As to the kind of experiment: in vivo. The note with it: i.p. The text has this:
(§1) As to MET, it is known that pentylene-tetrazol (metrazol) administered subcutaneously to mice in a loose fold of skin on the back of the neck, produces seizures. […] Failure to observe even a threshold seizure is defined as protection. In the same table the LD50 values (lethal dose 50), evaluated in the mouse both I.p. and per os, are given.

Series [4] is described as follows: in vivo. The note with it: mouse, in vivo.
Text: as §1

Where [5] appears, read: ip, mouse, i.p., electroshock 60 Hz, 0.2 sec, 25 mA, 30 or 60 minutes after administration.
Setting [6] is: po, mouse, os, electroshock 60 Hz, 0.2 sec, 25 mA, 30 or 60 minutes after administration.
[7] abbreviates: ip, mouse, i.p., pentylenetetrazol 130 mg/Kg s.c. 30 minutes after administration, observed 60 minutes.
Setting [8] is: po, mouse, os, pentylenetetrazol 130 mg/Kg s.c. 60 minutes after administration, observed 60 minutes.

Read-outs that look alike come from different tables or passages of the source.

Turning to `Cc1c(C)c([N+](=O)[O-])c(C)c(C)c1C(=O)Cn1ccnc1` [Compound 1429, 3-(N-imidazolyl-acetyl)-6-nitro-durene], the ED50 in series [1] (setting [5]) turned out to be 75 mg/kg; in series [1] (setting [6]) it was 54 mg/kg; in series [2] (Mus musculus, ip) it was 100 mg/kg; in series [2] (Mus musculus, po), 52 mg/kg.
Take `O=C(CCn1ccnc1)c1ccc(-c2ccccc2)cc1` [Compound 1490, 4-[3"-(N-imidazolyl)-propionyl]-biphenyl]: in series [3], the LD50 is 360 mg/kg. The 50% effective dose (ED50) in series [1] (Mus musculus, ip) worked out at 60 mg/kg; in series [1] (Mus musculus, po), 36 mg/kg; in series [2] (Mus musculus, ip), 15 mg/kg; in series [2] (Mus musculus, po), 30 mg/kg.
`CC(C(O)c1ccc(Sc2ccccc2)cc1)n1ccnc1` (stereo not drawn) [Compound 1540]: the ED50 turned out to be 155 mg/kg in series [1] (Mus musculus, ip); 150 mg/kg in series [1] (Mus musculus, po); 39 mg/kg in series [2] (Mus musculus, ip); 150 mg/kg in series [2] (Mus musculus, po).
Take `O=C(Cn1ccnc1)c1ccc(C2CCCCC2)cc1` [15/1803]: the ED50 in series [1] (Mus musculus, ip) is 66 mg/kg; in series [1] (Mus musculus, po) it was 92 mg/kg; in series [2] (Mus musculus, ip), 18 mg/kg; in series [2] (Mus musculus, po) it was 32 mg/kg.
`OC(Cn1ccnc1)c1ccc(-c2ccccc2)cc1` (stereo not drawn) [Compound 1342, 4-[1"-hydroxy-2"-(N-imidazolyl)-ethyl]-biphenyl]: the LD50 in series [4] (ip) is 1.15 mg/kg. The ED50 in series [1] (Mus musculus, ip) came to 25 mg/kg; in series [1] (Mus musculus, po), 25 mg/kg; in series [2] (Mus musculus, ip), 25 mg/kg; in series [2] (Mus musculus, po), 20 mg/kg.
For the compound `Cc1c(C)c(C(=O)Cn2ccnc2)c(C)c(C)c1Br` [Compound 1457, 3-(N-imidazolyl-acetyl)-6-bromo-durene], the ED50 turned out to be 180 mg/kg in series [1] (Mus musculus, ip); 190 mg/kg in series [1] (Mus musculus, po); 90 mg/kg in series [2] (Mus musculus, ip); 57 mg/kg in series [2] (Mus musculus, po).
Regarding `O=C(OC(Cn1ccnc1)c1ccc(-c2ccccc2)cc1)c1ccccc1` (stereo not drawn) [Compound 1575, 4-[1"-benzoyloxy-2"-(N-imidazolyl)-ethyl]-biphenyl], the median lethal dose (LD50) in series [4] (po) came to 1300 mg/kg. Also, the 50% effective dose (ED50) in series [1] (setting [5]) was 66 mg/kg; in series [1] (setting [6]) it was 135 mg/kg; in series [2] (Mus musculus, ip), 27 mg/kg; in series [2] (Mus musculus, po) it was 62 mg/kg.
In series [4] (po), `CC(C)(C(=O)c1ccc(-c2ccccc2)cc1)n1ccnc1` [Compound 1488, 4-[2"-methyl-2"-(N-imidazolyl)-propionyl]-biphenyl] yielded an LD50 of 1.87 mg/kg. For the same compound, the ED50 in series [1] (Mus musculus, ip) stood at 30 mg/kg; in series [1] (Mus musculus, po), 34 mg/kg; in series [2] (Mus musculus, ip) it was 25 mg/kg; in series [2] (Mus musculus, po), 37 mg/kg.
On to `OC(Cn1ccnc1)c1ccc(C2CCCCC2)cc1` (stereo not drawn) [Compound 1534, 1-[1'-hydroxy-2'-(N-imidazolyl)-ethyl]-4-cyclohexyl-benzene], for which the LD50 in series [4] (ip) turned out to be 490 mg/kg; in series [4] (po), 2700 mg/kg. Besides, the ED50 in series [1] (setting [5]) was 50 mg/kg; in series [1] (setting [6]) it was 60 mg/kg; in series [2] (setting [7]), 25 mg/kg; in series [2] (setting [8]) it was 27 mg/kg.
As to `Cc1c(C)c(C)c(C(O)Cn2ccnc2)c(C)c1C` (stereo not drawn) [Compound 1516, 3-[1'-hydroxy-2'-(N-imidazolyl)-ethyl]-6-methyl-durene], the LD50 in series [4] (ip) is 655 mg/kg; in series [4] (po), 1800 mg/kg. Besides, the ED50 in series [1] (setting [5]) worked out at 46 mg/kg; in series [1] (setting [6]), 57 mg/kg; in series [2] (setting [7]) it was 13 mg/kg; in series [2] (setting [8]), 35 mg/kg.
On to `O=C1NC(=O)C(c2ccccc2)(c2ccccc2)N1` [Diphenylidantoin, diphenylidantoin, reference compound], for which the ED50 in series [1] (setting [5]) was found to be 6 mg/kg; in series [1] (setting [6]), 10 mg/kg; in series [2] (setting [7]), 6 mg/kg; in series [2] (setting [8]), 5 mg/kg.
As to `CC(C)(C(O)c1ccc(Sc2ccccc2)cc1)n1ccnc1` (stereo not drawn) [Compound 1541], the ED50 in series [1] (Mus musculus, ip) was determined as 50 mg/kg; in series [1] (Mus musculus, po), 190 mg/kg; in series [2] (Mus musculus, ip) it was 23 mg/kg; in series [2] (Mus musculus, po), 135 mg/kg.
Compound `Cc1c(C)c(C)c(C(=O)Cn2ccnc2)c(C)c1C` [Compound 1518, 3-(N-imidazolyl-acetyl)-6-methyl-durene] displayed an LD50 in series [4] (po) of 1800 mg/kg. The ED50 in series [1] (setting [5]) was found to be 13 mg/kg; in series [1] (setting [6]), 45 mg/kg; in series [2] (Mus musculus, ip), 23 mg/kg; in series [2] (Mus musculus, po), 50 mg/kg.
Take `C(=Cn1ccnc1)c1ccc(-c2ccccc2)cc1` [Compound 1598, 4-(N-imidazolyl-vinylene)-biphenyl]: the ED50 was 185 mg/kg in series [1] (Mus musculus, ip); 145 mg/kg in series [1] (Mus musculus, po); 69 mg/kg in series [2] (Mus musculus, ip); 80 mg/kg in series [2] (Mus musculus, po).
For `CC(C)CCSc1ccc(C(O)Cn2ccnc2)cc1` (stereo not drawn) [Compound 1455], in series [4] (ip), the LD50 amounted to 420 mg/kg. The ED50 in series [1] (setting [5]) amounted to 15 mg/kg; in series [1] (setting [6]) it was 31 mg/kg; in series [2] (Mus musculus, ip), 19 mg/kg; in series [2] (Mus musculus, po), 22 mg/kg.
As for `CC(C)(C(O)c1ccc(-c2ccccc2)cc1)n1ccnc1` (stereo not drawn) [Compound 1492], the LD50 in series [4] (ip) was 420 mg/kg; in series [4] (po), 2400 mg/kg. Also, the ED50 in series [1] (setting [5]) came to 24 mg/kg; in series [1] (setting [6]), 27 mg/kg; in series [2] (setting [7]) it was 10 mg/kg; in series [2] (setting [8]), 14 mg/kg.
Regarding `Cc1c(C)c(C(=O)Cn2ccnc2)c(C)c(C)c1Cl` [Compound 1517, 3-(N-imidazolyl-acetyl)-6-chloro-durene], the median effective dose (ED50) in series [1] (setting [5]) came out at 80 mg/kg; in series [1] (setting [6]) it was 80 mg/kg; in series [2] (Mus musculus, ip), 150 mg/kg; in series [2] (Mus musculus, po) it was 150 mg/kg.
As to `CCC1(c2ccccc2)C(=O)NC(=O)NC1=O` [Phenobarbital, phenobarbital, reference compound], the figures for the LD50 in series [4] (ip) and in series [4] (po) were 242 mg/kg and 245 mg/kg, respectively. In addition, the ED50 turned out to be 14 mg/kg in series [1] (Mus musculus, ip); 18 mg/kg in series [1] (Mus musculus, po); 9 mg/kg in series [2] (Mus musculus, ip); 10 mg/kg in series [2] (Mus musculus, po).
For `OC(Cn1ccnc1)c1ccc(CCc2ccccc2)cc1` (stereo not drawn) [15/1533, 4-[1"-hydroxy-2"-(N-imidazolyl)-ethyl]-bibenzyl], the ED50 in series [1] (setting [5]) is 10 mg/kg; in series [1] (setting [6]), 12 mg/kg; in series [2] (Mus musculus, ip), 9 mg/kg; in series [2] (Mus musculus, po) it was 10 mg/kg.
For `O=C(CCn1ccnc1)c1ccc(CCc2ccccc2)cc1` [Compound 1585], the ED50 in series [1] (Mus musculus, ip) is 25 mg/kg; in series [1] (Mus musculus, po), 100 mg/kg; in series [2] (Mus musculus, ip) it was 25 mg/kg; in series [2] (Mus musculus, po) it was 25 mg/kg.
As for `Cc1c(C)c(C(O)Cn2ccnc2)c(C)c(C)c1Cl` (stereo not drawn) [Compound 1515, 3-[1'-hydroxy-2'-(N-imidazolyl)-ethyl]-6-chloro-durene], the ED50 in series [1] (setting [5]) was found to be 300 mg/kg; in series [1] (setting [6]), 150 mg/kg; in series [2] (Mus musculus, ip) it was 150 mg/kg; in series [2] (Mus musculus, po), 75 mg/kg.
Regarding `O=C(Cn1ccnc1)c1ccc(-c2ccccc2)cc1` [Compound 1341, 4-(N-imidazolyl-acetyl)-biphenyl], the ED50 in series [1] (Mus musculus, ip) came to 54 mg/kg; in series [1] (Mus musculus, po), 76 mg/kg; in series [2] (Mus musculus, ip) it was 28 mg/kg; in series [2] (Mus musculus, po), 10 mg/kg.
In the case of `Cc1cc(C)c(C)c(C(=O)Cn2ccnc2)c1C` [Compound 1323, 3-(N-imidazolyl-acetyl)-durene], the LD50 in series [4] (ip) was found to be 420 mg/kg; in series [4] (po) it was 1.17 mg/kg. The ED50 amounted to 18 mg/kg in series [1] (Mus musculus, ip); 33 mg/kg in series [1] (Mus musculus, po); 19 mg/kg in series [2] (Mus musculus, ip); 28 mg/kg in series [2] (Mus musculus, po).
In the case of `O=C(Cn1ccnc1)c1ccc(CCc2ccccc2)cc1` [Compound 1532, 4-(N-imidazolyl-acetyl)-bibenzyl], the LD50 in series [4] (po) worked out at 1.55 mg/kg; in series [3] it was 300 mg/kg. In addition, the ED50 in series [1] (Mus musculus, ip) amounted to 11 mg/kg; in series [1] (Mus musculus, po), 37 mg/kg; in series [2] (Mus musculus, ip) it was 11 mg/kg; in series [2] (Mus musculus, po) it was 17 mg/kg.
